From publication PMC7155171, “Probing the Open Global Health Chemical Diversity Library for Multistage-Active Starting Points for Next-Generation Antimalarials” (ACS Infectious Diseases, 2020)
Where two headings read alike, the source gives them in different places.

Legend:
[1] = system: P. falciparum Dd2; assay: SYBR green I asexual blood stage proliferation assay (96 h); assay type: cell-based, Plasmodium falciparum; details: Plasmodium falciparum, DD2, 11-pt dose response, 96hr
[2] = system: P. falciparum Dd2 (PfLuc) line expressing firefly luciferase, asexual blood stage; assay: microbe, parasite or virus in culture; assay type: cell-based, Plasmodium falciparum; details: Plasmodium falciparum
[3] = Sybr Green I, read-out: CDD P. falciparum Sybr Green I ABS 11-pt Reconfirmation Dose Response (96hr): IC50
[4] = Sybr Green I, read-out: CDD P. falciparum Sybr Green I ABS 11-pt Reconfirmation Dose Response (96hr): Maximum inhibition (%)
[5] = DD2, read-out: CDD P. falciparum Luciferase ABS 11-pt Reconfirmation Dose Response (48hr): IC50 (μM), 11-pt dose response, 48hr
[6] = DD2, 8-pt dose response, 96hr, read-out: CDD P. falciparum Luciferase ABS 8-pt Reconfirmation Dose Response (96hr): IC50
[7] = DD2, 11-pt dose response, 48hr, read-out: CDD P. falciparum Luciferase ABS 11-pt Reconfirmation Dose Response (48hr): Maximum inhibition (%)
[8] = DD2, 11-pt dose response, 96hr, read-out: CDD P. falciparum Luciferase ABS 11-pt Reconfirmation Dose Response (96hr): IC50
[9] = DD2, 11-pt dose response, 96hr, read-out: CDD P. falciparum Luciferase ABS 11-pt Reconfirmation Dose Response (96hr): Maximum inhibition (%)
[10] = DD2, 8-pt dose response, 96hr, read-out: CDD P. falciparum Luciferase ABS 8-pt Reconfirmation Dose Response (96hr): Maximum inhibition (%)
[11] = 96 h incubation, Dd2 luciferase, read-out: 96 hour Pfluc IC50
[12] = read-out: P. falciparum Sybr Green I ABS 11-pt Reconfirmation Dose Response (96hr): IC50
[13] = read-out: P. falciparum Sybr Green I ABS 11-pt Reconfirmation Dose Response (96hr): Maximum inhibition (%)
[14] = DD2, read-out: P. falciparum Luciferase ABS 11-pt Reconfirmation Dose Response (48hr): IC50, 11-pt dose response, 48hr
[15] = DD2, 8-pt dose response, 96hr, read-out: P. falciparum Luciferase ABS 8-pt Reconfirmation Dose Response (96hr): IC50
[16] = DD2, 11-pt dose response, 48hr, read-out: P. falciparum Luciferase ABS 11-pt Reconfirmation Dose Response (48hr): Maximum inhibition (%)
[17] = DD2, 11-pt dose response, 96hr, read-out: P. falciparum Luciferase ABS 11-pt Reconfirmation Dose Response (96hr): IC50
[18] = DD2, 11-pt dose response, 96hr, read-out: P. falciparum Luciferase ABS 11-pt Reconfirmation Dose Response (96hr): Maximum inhibition (%)
[19] = DD2, 8-pt dose response, 96hr, read-out: P. falciparum Luciferase ABS 8-pt Reconfirmation Dose Response (96hr): Maximum inhibition (%)

SMILES	IC50 [1, 3]	Emax [1, 4]	IC50 [2, 5]	IC50 [2, 6]	Emax [2, 7]	IC50 [2, 8]	Emax [2, 9]	Emax [2, 10]	IC50 [2, 11]	IC50 [1, 12]	Emax [1, 13]	IC50 [2, 14]	IC50 [2, 15]	Emax [2, 16]	IC50 [2, 17]	Emax [2, 18]	Emax [2, 19]
COc1ccc(C(=O)NCCCOC(C)c2ccccc2)c(OC)c1 (stereo not drawn) [DDD01071935]	> 4160 nM	72.8%	9.88 µM	1.03 µM	67.4%	3.26 µM	90.2%	–	–	–	–	–	–	–	–	–	–
OCCN1CCC(CNCc2ccc(Br)cc2)CC1 [DDD01072406]	2010 nM	92.7%	2.84 µM	0.53 µM	94.9%	0.749 µM	99.6%	95.5%	–	–	–	–	–	–	–	–	–
O=C(c1ccccc1)C1CCN(Cc2cc3c(cc2O)CCC3)CC1 [DDD01073482]	2300 nM	–	1.73 µM	0.6 µM	94.9%	0.607 µM	99.4%	93.1%	–	–	–	–	–	–	–	–	–
CC(NCC1CCN(CCO)CC1)c1ccc(F)c(Cl)c1 (stereo not drawn) [DDD01073649]	1900 nM	91.9%	3.46 µM	1.04 µM	94.4%	0.802 µM	99.5%	87%	0.8 µM	–	–	–	–	–	–	–	–
CC(NCC1CCN(CCO)CC1)c1ccc(OC(F)(F)F)cc1 (stereo not drawn) [DDD01073716]	2880 nM	95.9%	3.68 µM	0.46 µM	–	0.546 µM	99.2%	95.5%	0.55 µM	–	–	–	–	–	–	–	–
CC(NCC1CCN(CCO)CC1)c1cccc(Cl)c1 (stereo not drawn) [DDD01073717]	1320 nM	92.1%	3.01 µM	0.56 µM	93.9%	0.988 µM	99.8%	94.9%	–	–	–	–	–	–	–	–	–
CC(NCC1CCN(CCO)CC1)c1ccc(Cl)cc1 (stereo not drawn) [DDD01073718]	844 nM	–	2.47 µM	0.81 µM	–	0.695 µM	98.2%	–	–	–	–	–	–	–	–	–	–
CC(NCC1CCN(CCO)CC1)c1ccc(C(F)(F)F)cc1 (stereo not drawn) [DDD01073719]	2650 nM	92.8%	4.64 µM	0.52 µM	–	0.614 µM	98.9%	92.5%	0.61 µM	–	–	–	–	–	–	–	–
COc1ccc(CN2CCNC(=O)CC2)cc1SC(F)(F)F [DDD01074373]	–	–	–	–	–	–	–	–	–	> 4160 nM	51.3%	> 4.16 µM	1.28 µM	57.7%	0.735 µM	70.4%	–
CCN(CC)Cc1ccccc1NC(=O)N(C)Cc1ccccc1O [DDD01074443]	6280 nM	87.8%	3.95 µM	0.88 µM	89.7%	3.26 µM	95.8%	90%	–	–	–	–	–	–	–	–	–
COCCOc1ccccc1CNCC1COC2(CCCC2)O1 (stereo not drawn) [DDD01074854]	–	–	–	–	–	–	–	–	–	2130 nM	71.9%	> 12.5 µM	1.89 µM	29.8%	2.71 µM	75.6%	84.3%
CCc1cc(CNCc2ccccc2N(C)C2CCN(C)CC2)on1 [DDD01074859]	9570 nM	72%	> 12.5 µM	0.92 µM	55.6%	3.22 µM	82%	83.3%	–	–	–	–	–	–	–	–	–
CN1CCC(N(C)c2ccccc2CNCc2ccco2)CC1 [DDD01074928]	1100 nM	94.3%	1.71 µM	0.27 µM	80.4%	0.211 µM	97.1%	92.9%	0.21 µM	–	–	–	–	–	–	–	–
Cc1noc(C)c1CNCc1ccccc1N(C)C1CCN(C)CC1 [DDD01074938]	2600 nM	85.6%	> 12.5 µM	0.59 µM	61.9%	1.55 µM	86.7%	91.9%	–	–	–	–	–	–	–	–	–
Cc1ccc(CNCc2cccc3cccnc23)c(OC2CCOC2)c1 (stereo not drawn) [DDD01075119]	> 4160 nM	64.7%	3.77 µM	0.57 µM	87.5%	1.44 µM	98.4%	83.2%	–	–	–	–	–	–	–	–	–
CC(=O)N(c1ccc(F)cc1)c1nc(CN2CCCC2C(C)C)cs1 (stereo not drawn) [DDD01075305]	> 4160 nM	62.8%	6.08 µM	0.65 µM	57.5%	2.69 µM	92.1%	84.5%	–	–	–	–	–	–	–	–	–
COc1ccccc1C1(CNCc2cccc(O)c2)CCOCC1 [DDD01075721]	> 4160 nM	68.7%	10.3 µM	0.85 µM	67.7%	2.2 µM	90.3%	85.5%	–	–	–	–	–	–	–	–	–
Cc1ccccc1CNCC(O)c1ccc(OC(C)C)cc1 (stereo not drawn) [DDD01076008]	3770 nM	–	3.39 µM	0.89 µM	93.9%	1.47 µM	99.7%	–	–	–	–	–	–	–	–	–	–
Cc1cc(N2CCC(NC(C)Cc3ccsc3)CC2)nc(C)n1 (stereo not drawn) [DDD01076128]	–	–	–	–	–	–	–	–	–	7780 nM	72.7%	2.25 µM	1.19 µM	81.4%	1.09 µM	96.6%	89.6%
COCC(O)CN(C)c1ccnc2cc(Br)ccc12 (stereo not drawn) [DDD01076306]	2430 nM	95.6%	1.81 µM	0.99 µM	97.7%	1.51 µM	99.9%	–	–	–	–	–	–	–	–	–	–
Cc1cc(NC(=O)NC2CCN(C(C)C)CC2)c2ncccc2c1 [DDD01076635]	–	–	–	–	–	–	–	–	–	5300 nM	53.2%	> 12.5 µM	2.21 µM	47.1%	5.47 µM	86.3%	–
CN1CCN(c2ccccc2NC(=O)NCCc2ccccc2)CC1 [DDD01076697]	–	–	–	–	–	–	–	–	–	> 12500 nM	52.5%	> 12.5 µM	1.14 µM	65.5%	> 1.39 µM	89.4%	82.8%
